Converted amounts (≈) assume the structure as drawn.
Assays:
[1] = system: HeLa cells (cervical cancer); experiment: Cytotoxic assay (CellTiter 96 AQueous One Solution), HeLa
Procedure: (§1) We evaluated the cytotoxic activity of the ethyl acetate and methanol extracts obtained from different parts of the wild plant A. pichinchensis, including its leaves, stems, and callus cultures. The extracts were evaluated using concentrations of 200, 100, 50, 25, and 12.5 µg/mL against various cell lines (Table 1), including human prostate carcinoma (PC-3), cervical cancer (HeLa), hepatocellular carcinoma (Huh-7), human hepatoma (HepG2) and breast tumor cells (MCF-7). These cell lines represent cell types that, unfortunately, have high incidence and mortality rates globally.
PC-3 (prostate), HeLa (cervical), MCF-7 (breast), and Huh-7 and HepG2 (hepatocellular) human cancer cell lines were purchased from ATCC (Manassas, VA, USA) (Figure 5). We also included an immortalized human epidermal keratinocyte line (HaCat) as a control of non-cancerous cells. PC-3 was grown in RPMI-1640 medium (Sigma Aldrich, St. Louis, MO, USA), while Huh-7, HepG2, HeLa, and HaCat were grown in DMEM medium (Invitrogen, Thermo Fisher Scientific, Waltham, MA, USA) supplemented with 10% SFB and 2 mM glutamine. All cultures were incubated at 37 °C in 5% CO2.
Cells (4 × 10^3 cells/well) were seeded in 96-well plates. The cells were treated with the investigated samples (at 200, 100, 50, 25, and 12.5 µg/mL) and incubated at 37 °C in 5% CO2 for 48 h. Paclitaxel was used as a positive control. For determining the number of viable cells in proliferation we used a CellTiter 96® AQueous One Solution Cell Proliferation Assay kit (Promega, Madison, WI, USA), following the manufacturer’s instructions. Cell viability was determined by absorbance at 450 nm using an automated ELISA reader (Promega, Madison, WI, USA). Stock solutions of all compounds were prepared in DMSO at a maximum concentration of 0.5%. The experiments were conducted in triplicate in three independent experiments. Data were analyzed using the Prism 8.0 statistical program (Graphpad Software Inc., La Jolla, CA, USA) and the half-maximal inhibitory concentrations (IC50) were determined by regression analysis.

[2] = system: PC-3 cells (human prostate carcinoma); experiment: Cytotoxic assay (CellTiter 96 AQueous One Solution), PC-3
Procedure: as §1
(§2) PC-3 (prostate), HeLa (cervical), MCF-7 (breast), and Huh-7 and HepG2 (hepatocellular) human cancer cell lines were purchased from ATCC (Manassas, VA, USA) (Figure 5). We also included an immortalized human epidermal keratinocyte line (HaCat) as a control of non-cancerous cells. […]
(§3) Cells (4 × 10^3 cells/well) were seeded in 96-well plates. […] Cell viability was determined by absorbance at 450 nm using an automated ELISA reader (Promega, Madison, WI, USA). […] Data were analyzed using the Prism 8.0 statistical program (Graphpad Software Inc., La Jolla, CA, USA) and the half-maximal inhibitory concentrations (IC50) were determined by regression analysis.

[3] = system: Huh-7 cells (hepatocellular carcinoma); experiment: Cytotoxic assay (CellTiter 96 AQueous One Solution), Huh-7
Procedure: as §1, §2, §3

[4] = system: HepG2 cells (human hepatoma); experiment: Cytotoxic assay (CellTiter 96 AQueous One Solution), HepG2
Procedure: as §1, §2, §3

[5] = system: MCF-7 cells (breast tumor cells); experiment: Cytotoxic assay (CellTiter 96 AQueous One Solution), MCF-7
Procedure: as §1, §2, §3

[6] = system: HaCat cells (immortalized human epidermal keratinocytes); experiment: Cytotoxic assay (CellTiter 96 AQueous One Solution), HaCat selectivity control
Procedure: as §1, §2, §3

[7] = as above; conditions: human
Procedure: as §1, §2, §3

[8] = system: PC-3, HeLa, Huh-7, HepG2, MCF-7 and HaCat cell lines; experiment: Cytotoxic assay, statements over the whole cell line panel; conditions: PTX-treated cell lines
Procedure: as §1, §2, §3

## (2S,3R)-5-acetyl-7,3-dihydroxy-2-(1-isopropenyl)-2,3-dihydrobenzofuran [compound 7]
[1]
  Cytotoxic activity (IC50), HeLa: 23.86 ± 2.5 µg/mL
  Cytotoxic effect in words, HeLa: remarkable effect on the inhibition of HeLa cells
[2]
  Cytotoxic activity (IC50), PC-3: 80.36 ± 4.63 µg/mL
[3]
  Cytotoxic activity (IC50), Huh-7: 79.98 ± 3.78 µg/mL
[4]
  Cytotoxic activity (IC50), HepG2: 74.62 ± 2.02 µg/mL
[5]
  Cytotoxic activity (IC50), MCF-7: 107.20 ± 1.52 µg/mL
[6]
  Cytotoxic activity (IC50), HaCat: 123.50 ± 15.17 µg/mL

## CC(=O)O[C@H]1C(=O)[C@@]2(C)[C@H]([C@H](OC(=O)c3ccccc3)[C@]3(O)C[C@H](OC(=O)[C@H](O)[C@@H](NC(=O)c4ccccc4)c4ccccc4)C(C)=C1C3(C)C)[C@]1(OC(C)=O)CO[C@@H]1C[C@@H]2O [Paclitaxel, paclitaxel]
[1]; Homo sapiens, HeLa, 48 h, read-out: Cytotoxic activity (IC50), HeLa
  IC50: 0.017 ± 0.00103 µg/mL (≈ 0.0199 µM)
[2]; Homo sapiens, PC-3, 48 h, read-out: Cytotoxic activity (IC50), PC-3
  IC50: 0.013 ± 0.00196 µg/mL (≈ 0.0152 µM)
[3]; Homo sapiens, Huh-7, 48 h, read-out: Cytotoxic activity (IC50), Huh-7
  IC50: 0.021 ± 0.00273 µg/mL (≈ 0.0246 µM)
[4]; Homo sapiens, HepG2, 48 h, read-out: Cytotoxic activity (IC50), HepG2
  IC50: 0.00857 µg/mL (≈ 0.01 µM)
[5]; Homo sapiens, MCF7, 48 h, read-out: Cytotoxic activity (IC50), MCF-7
  IC50: 0.018 ± 0.0035 µg/mL (≈ 0.0211 µM)
[7]
  IC50 at 48 h: 0.097 ± 0.0128 µg/mL (≈ 0.114 µM)
[8]
  IC50 values range in words: nanomolar (nM) range

From publication PMC10609924, “Cytotoxic Activity of Wild Plant and Callus Extracts of Ageratina pichinchensis and 2,3-Dihydrobenzofuran Isolated from a Callus Culture” (Pharmaceuticals, 2023)
